Tests used:
Format in all cases: cell-based
[1] = tested on: multiple myeloma cell lines (MM.1S, 8226, KMS-11, U266)
Description: Cytotoxicity assay: Cells were incubated for 24 hr at 37° C. in 5% CO2 at which time drug treatments began and continued for 24 hr. At this time attached cells were trypsinized and combined with their respective culture media while suspension cells were directly transferred to a tube followed by centrifugation at 400 g for 5 min. The pellets were resuspended in 1 ml of Hanks solution and analyzed by Vi-Cell (Beckman Coulter, Fullerton, Calif.) cell viability analyzer.

MM.1S and REH cell lines [2] = test: Mitochondrial membrane potential (JC-1) after CCCP; conditions: immediately after 10 μM CCCP
Description: (§1) […]. A) ψm potential, B) mitochondrial Ca^2+ and C) cytoplasmic Ca^2+ levels were measured using the fluorochromes JC-1, X-rhod-1 and indo-1, respectively. After 10 min of initial baseline measurement, CCCP was added into each well to achieve a final concentration of 10 μM and changes in fluorescence intensity was assayed for up to 2 h. In the graphs the time point of CCCP addition is marked as ‘0’. The graph is an average of triplicate samples with +SD.
Assaying mitochondrial function: Two parameters were assayed for mitochondrial function: Δψm and oxygen consumption. Δψm was estimated using […] (JC-1, Invitrogen, Carlsbad, Calif., USA). Oxygen consumption was measured in 3×10^6 cells using a Clark's electrode (Hansatech, Cambridge, UK).

[3] = tested on: MM cell lines (MM.1S, 8226, KMS-11)
Description: Cytotoxicity assay: Cells were incubated for 24 h at 37° C. in 5% CO2 at which time drug treatments began and continued for 24 h. At this time cells were transferred to a tube followed by centrifugation at 400 g for 5 min. The pellets were resuspended in 1 ml of Hanks solution and analyzed by Vi-Cell (Beckman Coulter, Fullerton, Calif., USA) cell viability analyzer.

REH cells [4] = test: Cytoplasmic Ca2+ (indo-1) after CCCP; conditions: 10 μM CCCP
Description: as §1
(§2) Measurement of cytoplasmic and mitochondrial calcium: Cytoplasmic Ca^2+ concentration was estimated by using the cell permeant ratiometric fluorochrome indo-1-AM (Invitrogen, Carlsbad, Calif., USA) while mitochondrial Ca^2+ was measured by X-Rhod-1-AM (Invitrogen, Carlsbad, Calif., USA). In the latter assay, to normalize mitochondrial Ca^2+ signal to mitochondria number, Mitotracker Green (Invitrogen, Carlsbad, Calif., USA) fluorescence was simultaneously analyzed. Experiments were performed in cells loaded with either 2.5 μM of indo-1 or 5 μM X-rhod-1 and 250 nM of Mitotracker at 37° C. for 45 min. Cells were, then, centrifuged at 400 g for 5 min and resuspended in their growth medium followed by distribution of 100 μl of aliquots into 96 well optical bottom plates (Nalge Nunc, Int., Rochester, N.Y., USA) and fluorescence was measured by Spectra Max Gemini Plus (Molecular Devices, Sunnyvale, Calif., USA). The average of triplicates from untreated samples was used as control reading and increase in cytoplasmic or mitochondrial Ca^2+ was calculated as percent increase from control samples.

MM.1S cells [5] = test: Cytoplasmic Ca2+ (indo-1) after CCCP; conditions: 10 μM CCCP
Description: as §1, §2

MM.1S cells [6] = tested on: MM.1S cells
Description: (§3) A) Reversal of CCCP induced toxicity by either 10 μM BAPTA-AM or 50 μM of Z-VAD was investigated using trypan blue exclusion assays. The bars represent the average of triplicate samples +SD. B) ATP levels were assayed following 6 h of treatment with indicated concentrations of CCCP. The bars represent the average of triplicate samples +SD. C) Induction of UPR, activation of AMPK pathway and cleavage of caspase 3 was analyzed by western blots following 24 h treatment with indicated concentrations of CCCP in MM.1S and REH cell lines. β-Actin was used as a loading control. D) The quantification of phosphorylated AMPK and total AMPK bands in the previous panel was done using a Bio-Rad gel reader which employs Quality I software. The bars represent the fold increase in the ratio of p-AMPK/AMPK in treated versus untreated samples from three independent experiments +SD.
(§4) Western blot analysis: Western blots were performed. Membranes were probed with monoclonal rabbit anti-GRP94, anti GRP-78, anti-PDI, anti-CHOP/GADD153, anti-cleaved caspase 3 (Cell Signaling, Danvers, Mass., USA) and monoclonal mouse anti-β-actin (Sigma, St. Louis, Mo., USA).

[7] = tested on: non-myeloma cell lines (NALM6, MDA-MB-435, 143B, 1420); test: Measurement of cytoplasmic calcium (indo-1 fluorescence ratio 400/500 nm); conditions: non-myeloma cell lines (oligomycin: all cell lines)
Description: (§5) Measurement of cytoplasmic calcium: Cytoplasmic Ca^2+ concentration was estimated by using the cell permeant fluorochrome indo-1-AM (Invitrogen, Carlsbad, Calif.). When excited at 355 nm, the maximum emission of indo-1 shifts from 500 nm to 400 nm following its binding to free Ca^2+. Thus, the ratio of reading at 400 nm and 500 nm correlates with concentration of cytoplasmic Ca^2+. Experiments were performed in cells loaded with indo-1 by incubating them with 2.5 μM of this fluorochrome at 37° C. for 45 min. Cells were then centrifuged at 400 g for 5 min and resuspended in their growth medium followed by distribution of 100 μl of aliquots into 96 well optical bottom plates (Nalge Nunc, Int., Rochester, N.Y.) and fluorescence was measured by Spectra Max Gemini Plus (Molecular Devices, Sunnyvale, Calif.). The average of triplicates from untreated samples was used as control reading and increase in cytoplasmic Ca^2+ was calculated as percent increase from control samples.

[8] = tested on: MM cell lines (MM1.S, 8226, KMS-11, U266); test: as above; conditions: MM cell lines
Description: as §5

REH cells [9] = test: Western blot after 24 h CCCP (UPR, AMPK pathway, caspase 3)
Description: as §3, §4

MM.1S and REH cell lines [10] = test: Mitochondrial Ca2+ (X-rhod-1) after CCCP; conditions: 10 μM CCCP; both cell types
Description: as §1
as §2, with “The average of triplicates from untreated samples was used as control reading and increase in cytoplasmic or mitochondrial Ca^2+ was calculated as percent increase from control samples.” left out

[11] = tested on: CHOP/GADD153 and cleaved caspase 3 in MM.1S, 8226, KMS-11; test: Western blot of CHOP/GADD153 and cleaved caspase 3 in 3 MM cell lines; conditions: CCCP
Description: . Induction of UPR-mediated apoptosis following treatment of 3 MM cell lines with four different mitochondrial inhibitors for various time points was assayed by western blot analysis of CHOP and cleaved caspase 3.
as §4

## N#CC(C#N)=NNc1cccc(Cl)c1 [CCCP]
[1]; 24 h, MM cells
  cytotoxic potency compared to the other mitochondrial inhibitors: equipotency in inducing cytotoxicity in MM cells
[1]; 24 h treatment
  order of sensitivity among MM cell lines: greater in 8226 as compared to MM.1S cells
[1]; 24 h treatment, all 4 MM cell lines
  cytotoxicity (cell death): more toxic to multiple myeloma cell lines as compared to other cell types
MM.1S and REH cell lines [2]
  Δψm: significantly reduced in both cell types
[3]; 24 h, all 3 MM cell lines
  cytotoxicity (cell death): more toxic to MM cells as compared to non-myeloma cells
[3]; concentrations of FIG. 13, caspase 3 cleavage and percent of cell death
  cell death compared among mitochondrial inhibitors: more toxic than either antimycin A or oligomycin
REH cells [4]
  cytoplasmic Ca2+ levels directly after addition: go up in both cell types
  cytoplasmic Ca2+ levels later (after clearance phase): go back to control levels
MM.1S cells [5]
  cytoplasmic Ca2+ levels directly after addition: go up in both cell types
  cytoplasmic Ca2+ levels later (after clearance phase): remain elevated
MM.1S cells [6]; 24 h, MM cells
  CCCP concentration at which caspase 3 starts to get cleaved: 5 µM
MM.1S cells [6]; 24 h, MM.1S
  CCCP concentration giving significant induction of CHOP/GADD153 expression: 2.5 µM
MM.1S cells [6]; FIG. 12c
  potency in upregulating CHOP/GADD153, MM versus B-cell leukemia: four times more potent
MM.1S cells [6]; MM.1S
  AMPK phosphorylation at higher doses: suppressed
MM.1S cells [6]; MM.1S treated with CCCP
  eif2α phosphorylation and ATF4 upregulation: not detected
[7]
  increase in cytoplasmic Ca2+ after mitochondrial inhibitor: not seen in non-myeloma cell lines except for NALM6
[8]
  cytoplasmic Ca2+ after mitochondrial inhibitor: immediate increase in cytoplasmic Ca^2+
[8]; estimated from cytoplasmic Ca2+
  effect on mitochondrial Ca2+ uptake: equally inhibit mitochondrial Ca^2+ uptake
REH cells [9]; 24 h, REH
  CCCP concentration required for similar increase of CHOP/GADD153: at least 10 μM
REH cells [9]; REH
  AMPK phosphorylation at higher doses: continues to increase
REH cells [9]; REH, even at the 10 μM dose
  cleaved caspase 3: no cleaved caspase 3 can be detected
REH cells [9]; highest dose (10 μM) CCCP, REH compared to MM.1S
  AMPK phosphorylation: more phosphorylated
MM.1S and REH cell lines [10]
  mitochondrial Ca2+: lowering of Ca^2+ concentration in the mitochondrial matrix
[11]
  CHOP/GADD153 induction compared among the 3 MM cell lines: more profound in MM.1S and 8226 as compared to KMS-11
  caspase 3 cleavage compared among the 3 MM cell lines: more rapidly in MM.1S and 8226 versus KMS-11

Reference: US20120070511A1, “MITOCHONDRIAL INHIBITORS AND USES THEREOF” (priority 2009, published 2012)
